How the values were obtained:
[1] = molecular target: T1, mouse ENT-1 transporter (Mus musculus, UniProt Q9JIM1); assay: Adenosine transport activity (ENT1, [3H]-adenosine uptake inhibition); type: cell-based; settings: stable cells expressing mouse ENT-1; [2,8-3H]-adenosine 6 nM, 20 min
T1 construct: expressed in transfected cells
T1 sequence (Q9JIM1 1-460): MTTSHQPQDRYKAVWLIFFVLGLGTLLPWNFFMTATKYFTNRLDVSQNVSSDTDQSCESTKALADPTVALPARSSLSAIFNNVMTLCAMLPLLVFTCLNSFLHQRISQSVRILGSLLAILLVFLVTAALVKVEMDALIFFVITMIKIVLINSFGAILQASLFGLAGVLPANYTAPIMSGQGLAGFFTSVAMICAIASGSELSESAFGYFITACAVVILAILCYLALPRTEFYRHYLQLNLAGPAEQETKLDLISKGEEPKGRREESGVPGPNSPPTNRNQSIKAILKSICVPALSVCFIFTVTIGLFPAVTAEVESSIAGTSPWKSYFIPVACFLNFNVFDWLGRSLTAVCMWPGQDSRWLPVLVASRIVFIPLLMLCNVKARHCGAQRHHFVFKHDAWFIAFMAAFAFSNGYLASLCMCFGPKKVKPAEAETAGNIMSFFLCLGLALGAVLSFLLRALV
Protocol: To measure adenosine transport activity of ENT-1 mammalian cells, stable cells expressing the mouse ENT-1 transporter were plated on day 1 in 96-well culture plates at the density of 60,000 cells/well, in complete DMEM/F12 medium supplemented with glutamax, 10% FBS and 10 μg/ml puromycin. On day 2, the medium was aspirated and the cells were washed twice with uptake buffer (10 mM Hepes-Tris, pH 7.4 containing 150 mM NaCl, 1 mM CaCl2, 2.5 mM KCl, 2.5 mM MgSO4, 10 mM D-glucose) (UB). For inhibition experiments, cells were then incubated at RT with various concentrations of compounds with 1% DMSO final. Non-specific uptake was defined in the presence of 10 μM S-(4-Nitrobenzyl)-6-thioinosine (NBTI, Sigma Cat #N2255). A solution containing [2,8-^3H]-adenosine 6 nM (40 Ci/mmol, American Radiolabeled chemicals Inc, Cat #ART 0287A) was then immediately added to the wells. The plates were then incubated for 20 min with gentle shaking and the reaction was stopped by aspiration of the mixture and washing (three times) with ice-cold UB. The cells were lysed by the addition of scintillation liquid, shaken 3 hours and the radioactivity in the cells was estimated using a microplates scintillation counter (TopCount NXT, Packard).

[2] = test system: L-687,414-induced hyperlocomotion; assay: L-687,414-induced hyperlocomotion; type: in vivo; settings: Mus musculus; mice; dose 30 mg/kg ip, 15 min before 50 mg/kg s.c. L-687,414
Description: The authors described that hyperlocomotion induced by L-687,414 was inhibited by a series of known antipsychotic drugs. […] These findings predict antipsychotic activity for the present compounds, making them useful for the treatment of positive (psychosis) and negative symptoms of schizophrenia, substance abuse, alcohol and drug addiction, obsessive-compulsive disorders, cognitive impairment, bipolar disorders, mood disorders, major depression, resistant depression, anxiety disorders, Alzheimer's disease, autism, Parkinson's disease, chronic pain, borderline personality disorder, sleep disturbances, chronic fatigue syndrome, stiffness, antiinflammatory effects in arthritis and balance problems, and treatment of epilepsy and neurodevelopmental disorders with co-morbid epilepsy.
The described compounds of formula I reduce L-687,414-induced hyperlocomotion. This was assessed by using a computerized Digiscan 16 Animal Activity Monitoring System (Omnitech Electronics, Columbus, Ohio) to quantify locomotor activity. Animals were kept under a 12 h light/dark cycle and experiments were performed during the light period. Each activity monitoring chamber consisted of a Plexiglas box (41×41×28 cm; W×L×H) with sawdust bedding on the floor surrounded by invisible horizontal and vertical infrared sensor beams. The test boxes were divided by a Plexiglas cross providing each mouse with 20×20 cm of moving space. Cages were connected to a Digiscan Analyzer linked to a computer that constantly collected the beam status information. Records of photocell beam interruptions for individual animals were taken every 5 min over the duration of the experimental session and the sum of the first 6 periods was used as the final parameter. At least 8 mice were used in each treatment group. Compounds were administered i.p. 15 min before a s.c. injection of 50 mg/kg of L-687,414. Mice were then transferred from their home cage to the recording chambers for a 15-min habituation phase allowing free exploration of the new environment. Horizontal activity was then recorded for a 30-min time period. The % inhibition of L-687,414-induced hyperlocomotion was calculated according to the equation: ((Veh+L-687,414 horizontal activity−drug+L-687,414 horizontal activity)/Veh+L−687,414 horizontal activity)×100
ID50 values, defined as doses of each compound producing 50% inhibition of L-687,414-induced hyperlocomotion, were calculated by linear regression analysis of a dose-response data using an Excel-based computer-fitting program.
As data was not presupposed to be normally distributed, groups treated with test compounds were statistically compared with the control (vehicle-treated) group using one-tailed Mann Whitney U tests. In statistics, the Mann-Whitney Utest (also called the Mann-Whitney-Wilcoxon (MWW) or Wilcoxon rank-sum test) is a non-parametric statistical hypothesis test for assessing whether one of two samples of independent observations tends to have larger values than the other. It is one of the most well-known non-parametric significance tests. […] P values given in table 1 are one-tailed since only decreases in locomotion were expected and tested for (Mann, H. B., Whitney, D. R. (1947), “On a Test of Whether one of Two Random Variables is Stochastically Larger than the Other”, Annals of Mathematical Statistics, 18 (1), 50-60).

IC50 [1]: 14.2 nM
Compound: Cc1ncc(-c2ccc3c(c2)N(c2ccc4c(c2)N(C)C(=O)CO4)C(=O)C3(C)C)cn1 [Example 47, 6-(3,3-Dimethyl-6-(2-methylpyrimidin-5-yl)-2-oxoindolin-1-yl)-4-methyl-2H-benzo[b][1,4]oxazin-3(4H)-one]
inhibition in vivo at 30 mg/kg [2]: 93.8%

Source: patent US10519140B2, “Indolin-2-one derivatives” (Hoffmann-La Roche Inc., priority 2015, dated 2019)
